Patent US20220298158A1, “POLYMORPH OF VENETOCLAX AND METHOD FOR PREPARING THE POLYMORPH” (Johnson Matthey Public Limited Company, priority 2019, published 2022)

Assay: Stability study of venetoclax anhydrate under storage conditions (XRPD before and after storage)
Format: physicochemical
Experimental: (§1) FIG. 6 is representative XRPD overlay of venetoclax anhydrate before storage (bottom), venetoclax anhydrate after storage at 25° C./97% RH (relative humidity) for 7 days (middle), and venetoclax anhydrate after storage at 40° C./75% RH for 7 days (top).
X-Ray Powder Diffraction patterns were collected on a Bruker AXS C2 GADDS diffractometer using Cu Kα radiation (40 kV, 40 mA), automated XYZ stage, laser video microscope for auto-sample positioning and a HiStar 2-dimensional area detector. X-ray optics consists of a single Göbel multilayer mirror coupled with a pinhole collimator of 0.3 mm.
The beam divergence, i.e. the effective size of the X-ray beam on the sample, was approximately 4 mm. A θ-θ continuous scan mode was employed with a sample—detector distance of 20 cm which gives an effective 2θ range of 3.2° — 29.7° . Typically the sample would be exposed to the X-ray beam for 120 seconds. The software used for data collection was GADDS for XP/2000 4.1.43 and the data were analysed and presented using Diffrac Plus EVA v15.0.0.0.
as §1, with “Stability studies of venetoclax anhydrate under two storage conditions were also carried out. FIG.” for “FIG.”, “C/97%” for “C./97%”, “C/75%” for “C./75%”, “(top). […]” for “(top).”

time the anhydrate remains stable on storage (XRPD overlay) (storage at 25° C/97% RH (relative humidity) for 7 days): at least 7 days
time the anhydrate remains stable on storage (XRPD overlay) (storage at 40° C/75% RH for 7 days): at least 7 days
SMILES: CC1(C)CCC(CN2CCN(c3ccc(C(=O)NS(=O)(=O)c4ccc(NCC5CCOCC5)c([N+](=O)[O-])c4)c(Oc4cnc5[nH]ccc5c4)c3)CC2)=C(c2ccc(Cl)cc2)C1 [venetoclax anhydrate, 4-(4-{[2-(4-chlorophenyl)-4,4-dimethylcyclohex-1-en-1-yl]methyl}piperazin-1-yl)-N-({3-nitro-4-[(tetrahydro-2H-pyran-4-ylmethyl)amino]phenyl}sulfonyl)-2-(1H-pyrrolo[2,3-b]pyridine-5-yloxy)benzamide]
